Measurements: ChEMBL document CHEMBL1128107, “Amino acid-derived piperidides as novel CCKB ligands with anxiolytic-like properties” (Bioorg Med Chem Lett, 1995)
Activity calls are given as the source filed them. The calls are words filed in the database; no cut-off is given here.

How the values were obtained:
[1] = target: T1, Cholecystokinin receptor type A (Cavia porcellus, UniProt Q63931); assay: Inhibitory activity towards binding of [125I]Bolton-Hunter-CCK-8 to CCKA receptor in guinea pig pancreatic tissue
T1 sequence (Q63931 whole entry): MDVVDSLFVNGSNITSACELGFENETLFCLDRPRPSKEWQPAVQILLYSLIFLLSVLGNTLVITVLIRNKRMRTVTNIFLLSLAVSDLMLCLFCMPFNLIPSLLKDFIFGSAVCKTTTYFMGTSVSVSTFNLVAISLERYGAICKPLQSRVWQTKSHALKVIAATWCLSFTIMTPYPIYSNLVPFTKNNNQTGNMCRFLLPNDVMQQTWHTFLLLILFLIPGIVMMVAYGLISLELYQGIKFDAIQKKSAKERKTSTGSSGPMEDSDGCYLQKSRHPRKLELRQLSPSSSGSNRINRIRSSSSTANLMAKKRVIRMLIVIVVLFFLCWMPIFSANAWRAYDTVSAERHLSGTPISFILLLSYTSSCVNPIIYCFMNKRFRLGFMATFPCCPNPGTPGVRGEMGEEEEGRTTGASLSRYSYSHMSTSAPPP

Mus musculus [2] = assay: In vivo anxiolytic activity in mouse upon ip administration; less affinity and selectivity; format: functional, organism-based
NCI-H345 = assay: Ability to block CCK-8-induced calcium mobilization in NCI-H345 cells; format: functional, cell-based; settings: Homo sapiens
Mus musculus [3] = assay: In vivo anxiolytic activity in mouse upon ip administration; significant activity; format: functional, organism-based

Compound	IC50 [1] [µM]	other results
CC(C)C[C@H](NC(=O)[C@H](Cc1c[nH]c2ccccc12)NC(=O)OC(C)(C)C)C(=O)N1CCC(Cc2ccccc2)CC1	0.2	–
Cc1cccc(NC(=O)N[C@H](CCC(=O)N2CCCC2)C(=O)N2CCC(C(=O)c3ccccc3)CC2)c1	1.9	Activity (Mus musculus [2]): Weak activity; IC50 (NCI-H345): 0.251 µM
Cc1cccc(NC(=O)N[C@H](COC(=O)Nc2ccccc2)C(=O)N2CCC(C(=O)c3ccccc3)CC2)c1	0.29	–
CC(Cc1c[nH]c2ccccc12)(NC(=O)OC1[C@H]2C[C@@H]3C[C@@H](C[C@H]1C3)C2)C(=O)N1CCC(C(=O)c2ccccc2)CC1 (stereo partly specified)	1.7	–
Cc1cccc(NC(=O)N[C@H](COCc2ccccc2)C(=O)N2CCC(C(=O)Nc3ccccc3)CC2)c1	0.5	–
Cc1cccc(NC(=O)N[C@H](Cc2c[nH]c3ccccc23)C(=O)N2CCC(C(=O)c3ccccc3)CC2)c1	1.4	–
Cc1cccc(NC(=O)N[C@H](COCc2ccccc2)C(=O)N2CCC(C(=O)c3ccccc3)CC2)c1	2.4	–
Cc1cccc(NC(=O)N[C@H](COC(=O)N2CCCC2)C(=O)N2CCC(C(=O)Nc3ccccc3)CC2)c1	0.25	Activity (Mus musculus [3]): Active; IC50 (NCI-H345): 0.115 µM
CC(=O)C1CCN(C(=O)[C@@H](COCc2ccccc2)NC(=O)Nc2cccc(C)c2)CC1	1.3	–
Cc1cccc(NC(=O)N[C@H](COC(=O)N(C)C)C(=O)N2CCC(C(=O)c3ccccc3)CC2)c1	1.3	–
Cc1cccc(NC(=O)N[C@H](COCc2ccccc2)C(=O)N2CCCC(C(=O)Nc3ccccc3)C2)c1 (stereo partly specified)	2.2	–
Cc1cccc(NC(=O)N[C@@H](CC(C)C)C(=O)N2CCC(C(=O)c3ccccc3)CC2)c1	5.2	–
Cc1cccc(NC(=O)N[C@H](COC(=O)N2CCOCC2)C(=O)N2CCC(C(=O)c3ccccc3)CC2)c1	1.5	–
Cc1cccc(NC(=O)N[C@H](CCC(=O)OCc2ccccc2)C(=O)N2CCC(NC(=O)c3ccccc3)CC2)c1	0.97	–
Cc1cccc(NC(=O)N[C@H](CCCc2ccccc2)C(=O)N2CCC(C(=O)c3ccccc3)CC2)c1	1.8	–
Cc1cccc(NC(=O)N[C@H](CC(C)C)C(=O)N2CCC(C(=O)c3ccccc3)CC2)c1	2	–
Cc1cccc(NC(=O)N[C@H](CCC(=O)OCc2ccccc2)C(=O)N2CCN(C(=O)c3ccccc3)CC2)c1	1.5	–
CCCC[C@@H](NC(=O)Nc1cccc(C)c1)C(=O)N1CCC(C(=O)c2ccccc2)CC1	2.5	–
CC1(C)C2CCC1(COC(=O)N[C@](C)(Cc1c[nH]c3ccccc13)C(=O)NC[C@@H](NC(=O)CCC(=O)O)c1ccccc1)CC2	–	Activity (Mus musculus [3]): significant activity; IC50 (NCI-H345): 0.002 µM
CC(C)C[C@H](NC(=O)[C@H](Cc1c[nH]c2ccccc12)NC(=O)OC(C)(C)C)C(=O)N1CCC(C(=O)c2ccccc2)CC1	0.64	–

Second part, led by results:

IC50 [1] [µM]	Compound	other results
4.5	CC(C)(C)OC(=O)N[C@@H](Cc1c[nH]c2ccccc12)C(=O)N1CCC(C(=O)c2ccccc2)CC1	–
2.2	Cc1cccc(NC(=O)N[C@H](CCc2ccccc2)C(=O)N2CCC(C(=O)c3ccccc3)CC2)c1	–
1.8	Cc1cccc(NC(=O)N[C@H](CCC(=O)O)C(=O)N2CCC(C(=O)c3ccccc3)CC2)c1	–
1.1	Cc1cccc(NC(=O)N[C@H](CS(=O)(=O)Cc2ccccc2)C(=O)N2CCC(C(=O)c3ccccc3)CC2)c1	–
0.9	Cc1cccc(NC(=O)N[C@H](CCC(=O)OCc2ccccc2)C(=O)N2CCC(C(=O)c3ccccc3)CC2)c1	–
0.69	Cc1cccc(NC(=O)N[C@H](CCC(=O)OCc2ccccc2)C(=O)N2CCC(C(=O)Nc3ccccc3)CC2)c1	–
1.4	Cc1cccc(NC(=O)N[C@H](COC(=O)N2CCCC2)C(=O)N2CCC(C(=O)c3ccccc3)CC2)c1	Activity (Mus musculus [3]): Active; IC50 (NCI-H345): 0.22 µM
3.4	Cc1cccc(NC(=O)N[C@H](COCc2ccccc2)C(=O)N2CCC(Cc3ccccc3)CC2)c1	–
1.3	Cc1cccc(NC(=O)N[C@H](CSCc2ccccc2)C(=O)N2CCC(C(=O)c3ccccc3)CC2)c1	–
1.3	Cc1cccc(NC(=O)N[C@H](CC(=O)OCc2ccccc2)C(=O)N2CCC(C(=O)c3ccccc3)CC2)c1	–
0.8	Cc1cccc(NC(=O)N[C@H](C[S+]([O-])Cc2ccccc2)C(=O)N2CCC(C(=O)c3ccccc3)CC2)c1 (stereo partly specified)	–
0.42	Cc1cccc(NC(=O)N[C@H](COCc2ccccc2)C(=O)N2CCC(C(=O)c3ccc(F)cc3)CC2)c1	–
> 2.1	CC(C)C[C@H](NC(=O)OC(C)(C)C)C(=O)N1CCC(C(=O)c2ccccc2)CC1	–
1.3	Cc1cccc(NC(=O)N[C@@H](C(=O)N2CCC(C(=O)c3ccccc3)CC2)[C@@H](C)OCc2ccccc2)c1	–
